Test results taken from patent US20090325964A1, “Piperazine Metabotropic Glutamate Receptor 5 (MGLUR5) Negative Allosteric Modulators For Anxiety/Depression” (Wyeth, priority 2008, published 2009).
Like-named read-outs stand apart in the source and are kept apart here.

How the values were obtained:
[1] = target: T1, rat mGluR5 receptor (Rattus norvegicus, UniProt P31424); assay: [3H]-MPEP displacement binding assay, HEK-293 cell membranes expressing rat mGluR5; settings: for Ki: read-out: Median Ki
T1 construct: expressed in transfected cells; host or cells: HEK-293
Procedure, shortened: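 Membranes from HEK-293 cells expressing rat mGluR5 (12-25 μg protein), incubated 60 min at room temperature with 4 nM [3H]-MPEP in 50 mM Tris pH 7.5, then filtered. Nonspecific binding defined with 10 μM MPEP.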

[2] = target: mGluR5 (Rattus norvegicus, UniProt P31424); assay: IC50 column under 'Biological Activity' (assay not identified in the shown text; not the binding Ki)
[3] = [3H]-MPEP displacement, rat mGluR5
[4] = bound printed in place of a Ki, read-out: IC50 (printed in the Median Ki column)
[5] = [3H]-MPEP displacement, rat mGluR5 membranes

Chain of mGluR5 (P31424 21-1203): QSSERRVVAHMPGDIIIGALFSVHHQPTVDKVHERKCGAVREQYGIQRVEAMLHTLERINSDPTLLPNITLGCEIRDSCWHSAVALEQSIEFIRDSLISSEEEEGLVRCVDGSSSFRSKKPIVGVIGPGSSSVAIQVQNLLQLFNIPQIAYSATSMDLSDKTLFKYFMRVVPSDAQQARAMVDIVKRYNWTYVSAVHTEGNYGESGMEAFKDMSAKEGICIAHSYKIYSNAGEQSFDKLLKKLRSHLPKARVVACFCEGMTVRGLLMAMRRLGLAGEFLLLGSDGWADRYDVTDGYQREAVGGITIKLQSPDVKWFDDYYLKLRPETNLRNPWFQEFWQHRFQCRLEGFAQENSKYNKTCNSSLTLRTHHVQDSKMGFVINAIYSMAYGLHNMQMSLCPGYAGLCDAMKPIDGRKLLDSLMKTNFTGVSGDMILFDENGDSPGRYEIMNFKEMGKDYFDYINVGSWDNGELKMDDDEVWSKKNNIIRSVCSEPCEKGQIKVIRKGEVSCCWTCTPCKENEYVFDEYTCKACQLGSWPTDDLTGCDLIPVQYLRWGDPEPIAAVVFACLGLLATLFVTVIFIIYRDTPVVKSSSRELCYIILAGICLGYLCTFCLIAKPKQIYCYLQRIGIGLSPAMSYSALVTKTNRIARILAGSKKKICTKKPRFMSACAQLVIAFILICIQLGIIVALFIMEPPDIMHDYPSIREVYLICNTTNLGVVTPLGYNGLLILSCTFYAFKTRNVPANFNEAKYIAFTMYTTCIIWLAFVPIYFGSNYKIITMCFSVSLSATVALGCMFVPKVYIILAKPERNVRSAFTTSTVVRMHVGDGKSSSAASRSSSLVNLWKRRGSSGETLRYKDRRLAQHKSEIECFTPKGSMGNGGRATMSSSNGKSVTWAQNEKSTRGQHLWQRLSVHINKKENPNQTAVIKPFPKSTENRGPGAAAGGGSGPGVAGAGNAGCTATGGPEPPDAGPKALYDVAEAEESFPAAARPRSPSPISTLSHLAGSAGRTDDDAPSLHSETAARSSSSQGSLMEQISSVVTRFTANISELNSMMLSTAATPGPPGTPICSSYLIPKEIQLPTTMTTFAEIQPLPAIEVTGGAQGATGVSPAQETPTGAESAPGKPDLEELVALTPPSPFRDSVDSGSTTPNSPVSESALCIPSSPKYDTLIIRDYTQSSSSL
T1 sequence (P31424 21-1203): as above

A Ki [1, 3] of 0.041 µM and an IC50 [2] of 0.066 µM were found for `COc1ccc(C(=O)N2CCN(c3ccc(C(F)(F)F)cn3)CC2)cc1C#Cc1ccccn1` [Compound 183, 1-[4-methoxy-3-(pyridin-2-ylethynyl)benzoyl]-4-[5-(trifluoromethyl)pyridin-2-yl]piperazine] in this work.
A Ki [1, 3] of 0.078 µM and an IC50 [2] of 0.117 µM were found for `COc1ccc(C(=O)N2CCN(c3ncccc3C(F)(F)F)CC2)cc1C#Cc1ccccn1` [Compound 184, 1-[4-methoxy-3-(pyridin-2-ylethynyl)benzoyl]-4-[3-(trifluoromethyl)pyridin-2-yl]piperazine] in this work.
A Ki [1, 3] of 0.047 µM and an IC50 [2] of 0.043 µM were found for `COc1ccc(C(=O)N2CCN(c3ncc(Cl)cc3Cl)CC2)cc1C#Cc1ccccn1` [Compound 185, 1-(3,5-dichloropyridin-2-yl)-4-[4-methoxy-3-(pyridin-2-ylethynyl)benzoyl]piperazine] in this work.
A Ki [1, 3] of 0.019 µM and an IC50 [2] of 0.037 µM were found for `COc1ccc(C(=O)N2CCN(c3ncccc3Cl)CC2)cc1C#Cc1ccccn1` [Compound 186, 1-(3-chloropyridin-2-yl)-4-[4-methoxy-3-(pyridin-2-ylethynyl)benzoyl]piperazine] in this work.
A Ki [1, 3] of 0.005 µM and an IC50 [2] of 0.834 µM were found for `COc1ccc(C(=O)N2CCN(c3cccc(C(F)(F)F)c3)CC2)cc1C#Cc1ccccn1` [Compound 187, 1-[4-methoxy-3-(pyridin-2-ylethynyl)benzoyl]-4-[3-(trifluoromethyl)phenyl]piperazine] in this work.
A Ki [1, 3] of 0.007 µM and an IC50 [2] of 0.086 µM were found for `COc1ccc(C(=O)N2CCN(c3ccc(Cl)cn3)CC2)cc1C#Cc1ccccn1` [Compound 188, 1-(5-chloropyridin-2-yl)-4-[4-methoxy-3-(pyridin-2-ylethynyl)benzoyl]piperazine] in this work.
A Ki [1, 3] of 0.004 µM and an IC50 [2] of 0.148 µM were found for `COc1ccc(C(=O)N2CCN(c3cccc(Cl)c3)CC2)cc1C#Cc1ccccn1` [Compound 189, 1-(3-chlorophenyl)-4-[4-methoxy-3-(pyridin-2-ylethynyl)benzoyl]piperazine] in this work.
A Ki [1, 3] of 0.413 µM and an IC50 [2] of 0.408 µM were found for `COc1ccc(C(=O)N2CCN(c3ncc(C(F)(F)F)cc3Cl)CC2)cc1C#Cc1ccccn1` [Compound 190, 1-[3-chloro-5-(trifluoromethyl)pyridin-2-yl]-4-[4-methoxy-3-(pyridin-2-ylethynyl)benzoyl]piperazine] in this work.
A Ki [1, 3] of 0.019 µM and an IC50 [2] of 0.031 µM were found for `COc1ccc(C(=O)N2CCN(c3cc(C)ccn3)CC2)cc1C#Cc1ccccn1` [Compound 191, 1-[4-methoxy-3-(pyridin-2-ylethynyl)benzoyl]-4-(4-methylpyridin-2-yl)piperazine] in this work.
A Ki [1, 3] of 0.045 µM and an IC50 [2] of 0.109 µM were found for `COc1ccc(C(=O)N2CCN(c3nc(C)cc(C)n3)CC2)cc1C#Cc1ccccn1` [Compound 192, 2-{4-[4-methoxy-3-(pyridin-2-ylethynyl)benzoyl]piperazin-1-yl}-4,6-dimethylpyrimidine] in this work.
A Ki [1, 3] of 0.034 µM and an IC50 [2] of 0.046 µM were found for `COc1ccc(C(=O)N2CCN(c3nccnc3C#N)CC2)cc1C#Cc1ccccn1` [Compound 193, 3-{4-[4-methoxy-3-(pyridin-2-ylethynyl)benzoyl]piperazin-1-yl}pyrazine-2-carbonitrile] in this work.
A Ki [1, 3] of 0.004 µM and an IC50 [2] of 0.078 µM were found for `COc1ccc(C(=O)N2CCN(c3nccc(C(F)(F)F)n3)CC2)cc1C#Cc1ccccn1` [Compound 194, 2-{4-[4-methoxy-3-(pyridin-2-ylethynyl)benzoyl]piperazin-1-yl}-4-(trifluoromethyl)pyrimidine] in this work.
A Ki [1, 3] of 0.026 µM and an IC50 [2] of 0.702 µM were found for `COc1ccc(C(=O)N2CCN(c3cccc(O)c3)CC2)cc1C#Cc1ccccn1` [Compound 195, 3-{4-[4-methoxy-3-(pyridin-2-ylethynyl)benzoyl]piperazin-1-yl}phenol] in this work.
A Ki [1, 3] of 0.016 µM and an IC50 [2] of 0.065 µM were found for `COc1ccc(C(=O)N2CCN(c3cccc(C)c3)CC2)cc1C#Cc1ccccn1` [Compound 196, 1-[4-methoxy-3-(pyridin-2-ylethynyl)benzoyl]-4-(3-methylphenyl)piperazine] in this work.
An IC50 [2] of 0.034 µM was found for `COc1ccc(C(=O)N2CCN(c3cccc(C)n3)CC2)cc1C#Cc1ccccn1` [Compound 198, 1-[4-methoxy-3-(pyridin-2-ylethynyl)benzoyl]-4-(6-methylpyridin-2-yl)piperazine] in this work.
An IC50 [2] of 0.072 µM was found for `COc1ccc(C(=O)N2CCN(c3ncccn3)CC2)cc1C#Cc1ccccn1` [Compound 353, 2-{4-[4-methoxy-3-(pyridin-2-ylethynyl)benzoyl]piperazin-1-yl}pyrimidine] in this work.
A Ki [1, 3] of 0.29 µM was found for `COc1ccc(C(=O)N2CCN(c3ncccn3)CC2)cc1C#Cc1cccc(OC(F)(F)F)c1` [Compound 356, 2-[4-(4-methoxy-3-{[3-(trifluoromethoxy)phenyl]ethynyl}benzoyl)piperazin-1-yl]pyrimidine] in this work.
A Ki [1, 3] of 0.239 µM was found for `COc1ccc(C(=O)N2CCN(c3ncccn3)CC2)cc1C#Cc1cccc([N+](=O)[O-])c1` [Compound 357, 2-(4-{4-methoxy-3-[(3-nitrophenyl)ethynyl]benzoyl}piperazin-1-yl)pyrimidine] in this work.
For `COc1ccc(C(=O)N2CCN(c3ncccn3)CC2)cc1C#Cc1ccc(OCc2ccccc2)cc1` [Compound 358, 2-[4-(3-{[4-(benzyloxy)phenyl]ethynyl}-4-methoxybenzoyl)piperazin-1-yl]pyrimidine], the IC50 ([1]; [3H]-MPEP displacement, rat mGluR5, no Ki given, read-out: IC50 (printed in the Median Ki column instead of a Ki)) was > 10 µM.
A Ki [1, 3] of 0.287 µM was found for `COc1ccc(C(=O)N2CCN(c3ncccn3)CC2)cc1C#Cc1ccccc1F` [Compound 359, 2-(4-{3-[(2-fluorophenyl)ethynyl]-4-methoxybenzoyl}piperazin-1-yl)pyrimidine] in this work.
A Ki [1, 3] of 4.5 µM was found for `COc1ccc(C(=O)N2CCN(c3ncccn3)CC2)cc1C#Cc1ccccc1Cl` [Compound 360, 2-(4-{3-[(2-chlorophenyl)ethynyl]-4-methoxybenzoyl}piperazin-1-yl)pyrimidine] in this work.
A Ki [1, 3] of 0.891 µM was found for `COc1ccc(C(=O)N2CCN(c3ncccn3)CC2)cc1C#Cc1ccc(Cl)cc1` [Compound 363, 2-(4-{3-[(4-chlorophenyl)ethynyl]-4-methoxybenzoyl}piperazin-1-yl)pyrimidine] in this work.
A Ki [1, 3] of 0.23 µM was found for `COc1ccc(C(=O)N2CCN(c3ncccn3)CC2)cc1C#Cc1cccc(OC(F)F)c1` [Compound 364, 2-[4-(3-{[3-(difluoromethoxy)phenyl]ethynyl}-4-methoxybenzoyl)piperazin-1-yl] pyrimidine] in this work.
For `COc1nc(N2CCN(C(=O)c3ccc(C(F)(F)F)c(C#Cc4ccccn4)c3)CC2)ncc1Br` [Compound 365, 5-bromo-4-methoxy-2-(4-{[3-(pyridin-2-ylethynyl)-4-(trifluoromethyl)phenyl]carbonyl}piperazin-1-yl)pyrimidine], the IC50 [1, 4] was > 10 µM.
A Ki [1, 5] of 0.459 µM was found for `N#Cc1nccnc1N1CCN(C(=O)c2ccc(C(F)(F)F)c(C#Cc3ccccn3)c2)CC1` [Compound 366, 3-(4-{[3-(pyridin-2-ylethynyl)-4-(trifluoromethyl)phenyl]carbonyl}piperazin-1-yl) pyrazine-2-carbonitrile] in this work.
A Ki [1, 5] of 2.92 µM was found for `O=C(c1ccc(C(F)(F)F)c(C#Cc2ccccn2)c1)N1CCN(c2ncc(Cl)cc2Cl)CC1` [Compound 368, 1-(3,5-dichloropyridin-2-yl)-4-{[3-(pyridin-2-ylethynyl)-4-(trifluoromethyl)phenyl]carbonyl}piperazine] in this work.
A Ki [1, 5] of 0.164 µM was found for `O=C(c1ccc(C(F)(F)F)c(C#Cc2ccccn2)c1)N1CCN(c2ncccn2)CC1` [Compound 370, 2-(4-{[3-(pyridin-2-ylethynyl)-4-(trifluoromethyl)phenyl]carbonyl}piperazin-1-yl)pyrimidine] in this work.
A Ki [1, 5] of 1 µM was found for `O=C(c1ccc(C(F)(F)F)c(C#Cc2ccccn2)c1)N1CCN(c2ncccc2Cl)CC1` [Compound 371, 1-(3-chloropyridin-2-yl)-4-{[3-(pyridin-2-ylethynyl)-4-(trifluoromethyl)phenyl]carbonyl}piperazine] in this work.
A Ki [1, 5] of 0.292 µM was found for `Cc1ccc(N2CCN(C(=O)c3ccc(C(F)(F)F)c(C#Cc4ccccn4)c3)CC2)nc1` [Compound 372, 1-(5-methylpyridin-2-yl)-4-{[3-(pyridin-2-ylethynyl)-4-(trifluoromethyl)phenyl]carbonyl}piperazine] in this work.
A Ki [1, 5] of 0.811 µM was found for `O=C(c1ccc(C(F)(F)F)c(C#Cc2ccccn2)c1)N1CCN(Cc2cccc(F)c2)CC1` [Compound 376, 1-(3-fluorobenzyl)-4-{[3-(pyridin-2-ylethynyl)-4-(trifluoromethyl)phenyl]carbonyl}piperazine] in this work.
In the case of `O=C(c1ccc(C(F)(F)F)c(C#Cc2ccccn2)c1)N1CCN(c2nc3ccccc3s2)CC1` [Compound 377, 2-(4-{[3-(pyridin-2-ylethynyl)-4-(trifluoromethyl)phenyl]carbonyl}piperazin-1-yl)-1,3-benzothiazole], the IC50 [1, 4] is reported as > 10 µM.
A Ki [1, 5] of 3.13 µM was found for `O=C(c1ccc(C(F)(F)F)c(C#Cc2ccccn2)c1)N1CCN(c2ccc(C(F)(F)F)cn2)CC1` [Compound 379, 1-{[3-(pyridin-2-ylethynyl)-4-(trifluoromethyl)phenyl]carbonyl}-4-[5-(trifluoromethyl)pyridin-2-yl]piperazine] in this work.
A Ki [1, 5] of 0.352 µM was found for `Cc1cccc(N2CCN(C(=O)c3ccc(C(F)(F)F)c(C#Cc4ccccn4)c3)CC2)n1` [Compound 380, 1-(6-methylpyridin-2-yl)-4-{[3-(pyridin-2-ylethynyl)-4-(trifluoromethyl)phenyl]carbonyl}piperazine] in this work.
A Ki [1, 5] of 0.162 µM was found for `O=C(c1ccc(C(F)(F)F)c(C#Cc2ccccn2)c1)N1CCN(c2cnccn2)CC1` [Compound 381, 2-(4-{[3-(pyridin-2-ylethynyl)-4-(trifluoromethyl)phenyl]carbonyl}piperazin-1-yl)pyrazine] in this work.
A Ki [1, 5] of 0.12 µM was found for `O=C(c1ccc(Cl)c(C#Cc2ccccn2)c1)N1CCN(c2cccc(C(F)(F)F)c2)CC1` [Compound 392, 1-[4-chloro-3-(pyridin-2-ylethynyl)benzoyl]-4-[3-(trifluoromethyl)phenyl]piperazine] in this work.
